What is called IC50 is the midpoint of a concentration-inhibition curve. A higher IC50 goes with a need for much substance.

Structures are written as SMILES.

Here are results for 28 compounds from patent publication US20250129086A1, “COMPOUND FOR DEGRADING EGFR PROTEIN AND USE THEREOF” (TYK MEDICINES, INC., priority 2021, published 2025).

What all share (format): cell-based, human
The subject of assay [1] is PC-9 (EGFR exon 19 deletion). The assay can be described thus: Cell antiproliferative assay (CTG, 72 h), PC-9. Particulars: Homo sapiens, PC-9, 72 h, Table 2, PC-9 cells. The method, then: (§1) Test Example 1 Cell Antiproliferative Assay
(§2) H1975: with EGFR: L858R/T790M double mutation; PC-9 with EGFR exon 19 deletion, HCC827 with exon 19 deletion mutation. CellCounting-Lite2.0, Trypsin EDTA, 37° C. CO2 incubator, cell counter, EnVision Serial No.1050454. II. Experimental preparation:
(§3) • (A) Trypsin EDTA was used to digest log-phase cells, medium was added to terminate the reaction, and a cell suspension was made by blowing and mixing with a pipette. • (B) Cell concentration was determined using Vi-cell, and a suspension of 15,000-25,000 cells per milliliter was made depending on the purpose of the experiment and the characteristics of the cells. • (C) After the cell suspension was prepared, it was gently mixed and 100 microliters per well was added so that the density of cells to be tested was 1500-2500 per well.
(§4) • (A) About 2 mg of compound was weighed, and the volume of DMSO required was calculated according to the formula: compound mass (mg)*compound purity (%)/compound molecular weight*1000 • (B) The inoculated cell culture plates were incubated in an incubator and the compounds with concentration gradient were added after about 24 hours. • (C)10 Mm of compound stock solution was diluted to […] with medium, and 50 Mm of compound solution was added sequentially to the second column of the deep-well plate, and […] of medium containing 0.5% DMSO was added to the third to eleventh columns. • (D) Gradient dilution: 125 μl of solution was pipetted from the second column and added to the third column, after mixing; another 125 μl of solution was pipetted from the third column and added to the fourth column, and the operation was repeated until the tenth column. • (E)25 μl of compound was pipetted from the deep-well plate into a 96-well culture plate using a multichannel pipette, and each compound was repeated three times on the 96-well plate. A maximum concentration of 10,000 nm with concentration gradient of 1:4 was eventually formed on the 96-well plate.
(§5) • (A)96-well plates were incubated in an incubator for 72 h. The effect of the compounds was observed under an inverted microscope. • (B)25 μl of CTG solution was added to each well, the plate was put on shaker for 10 minutes and the […] of each well was read.
(§6) The cell viability rate (% Cell Viability) was calculated using the following formula: • % Cell Viability=100%×(Lum_Sample-Lum_LC)/(Lum_HC-Lum_LC) • Lum_HC: Cell reading of 0.1% DMSO control • Lum_Sample: Cell reading with compound added • Lum_LC: Reading of Blank media • IC50 values were obtained by curve fitting with GraphPad Prism 8 software.

Assay [2] has as its system HCC827 (exon 19 deletion mutation). The assay can be described thus: Cell antiproliferative assay (CTG, 72 h), HCC827. As to conditions: Homo sapiens, HCC827, 72 h, Table 2, HCC827 cells. On the procedure:
as §1, §2, §3, §4, §5, §6

Assay [3] concerns H1975 (EGFR L858R/T790M double mutation). The assay can be described thus: Cell antiproliferative assay (CTG, 72 h), H1975. Particulars: Homo sapiens, NCI-H1975, 72 h, Table 2, H1975 cells. On the procedure: as §1, §2, §3, §4, §5, §6

Turning to `COc1cc(N2CCC(CN3CCN(c4ccc5c(c4)C(=O)N(C4CCC(=O)NC4=O)C5=O)CC3)CC2)ccc1Nc1ncc(Cl)c(Nc2ccccc2C(C)=O)n1` (stereo not drawn) [Compound T-225], the IC50 in assay [1] is at least 1000 nM; in assay [2], at least 1000 nM; in assay [3] it was 100 to 1000 nM.
With `COc1cc(N2CCN(CC3CCN(c4ccc5c(c4)C(=O)N(C4CCC(=O)NC4=O)C5=O)CC3)CC2)ccc1Nc1ncc(Cl)c(Nc2ccccc2C(C)=O)n1` (stereo not drawn) [Compound T-226], the IC50 in assay [1] was at least 1000 nM; in assay [2], 100 to 1000 nM; in assay [3], 100 to 1000 nM.
With `COc1cc(N2CCN(C(=O)CC3CCN(c4ccc5c(c4)C(=O)N(C4CCC(=O)NC4=O)C5=O)CC3)CC2)ccc1Nc1ncc(Cl)c(Nc2ccccc2C(C)=O)n1` (stereo not drawn) [Compound T-231], the values for the 50% inhibitory concentration (IC50) in assay [1], in assay [2] and in assay [3] were at least 1000 nM, 10 to 100 nM and 100 to 1000 nM, respectively.
For `C=CC(=O)Nc1cc(Nc2nccc(-c3cn(C)c4ccccc34)n2)c(OC)cc1N(C)CCN(C)CC(=O)N1CCC(c2ccc(NC3CCC(=O)NC3=O)cc2)CC1` (stereo not drawn) [Compound T-237], the values for the IC50 in assay [1], in assay [2] and in assay [3] were 100 to 1000 nM, 100 to 1000 nM and at least 1000 nM, respectively.
In the case of `COc1cc(N2CCN(c3ncc(Cl)c(Nc4ccccc4C(C)=O)n3)CC2)ncc1NC(=O)CN1CCC(c2ccc(NC3CCC(=O)NC3=O)cc2)CC1` (stereo not drawn) [Compound T-239], the IC50 was at least 1000 nM in assay [1], 100 to 1000 nM in assay [2] and at least 1000 nM in assay [3].
On to `COc1cc(N2CCN(C(=O)CN3CCC(c4ccc(NC5CCC(=O)NC5=O)cc4)CC3)CC2)c(C)cc1Nc1ncc(Cl)c(Nc2ccccc2C(=O)N(C)C)n1` (stereo not drawn) [Compound T-241], for which the IC50 was 100 to 1000 nM in assay [1], 100 to 1000 nM in assay [2] and at most 10 nM in assay [3].
Turning to `COc1cc(N2CCN(C(=O)CN3CCC(c4ccc(NC5CCC(=O)NC5=O)cc4)C3)CC2)ccc1Nc1ncc(Cl)c(Nc2ccccc2C(C)=O)n1` (stereo not drawn) [Compound T-242], the IC50 in assay [1], in assay [2] and in assay [3] was 100 to 1000 nM in each case.
`COc1cc(N2CCN(C(=O)CN3CCC(c4ccc(NC5CCC(=O)NC5=O)cc4)CC3)CC2)ccc1Nc1ncc(Cl)c(Nc2ccc(Cl)cc2C(C)(C)O)n1` (stereo not drawn) [Compound T-243]: the IC50 was 10 to 100 nM in assay [1], 10 to 100 nM in assay [2] and at most 10 nM in assay [3].
For the compound `COc1cc(N2CCN(C(=O)CN3CCC(c4ccc(NC5CCC(=O)NC5=O)cc4)CC3)CC2)ncc1Nc1ncc(Cl)c(Nc2ccccc2C(C)=O)n1` (stereo not drawn) [Compound T-244], the IC50 in assay [1], in assay [2] and in assay [3] was 10 to 100 nM throughout.
Take `COc1ccc(Nc2nc(Nc3ccc(N4CCN(C(=O)CN5CCC(c6ccc(NC7CCC(=O)NC7=O)cc6)CC5)CC4)cc3OC)ncc2Cl)c(C(C)=O)c1` (stereo not drawn) [Compound T-249]: the IC50 in assay [1] was 10 to 100 nM; in assay [2], 10 to 100 nM; in assay [3], at most 10 nM.
As for `CNC(=O)c1ccccc1Nc1nc(Nc2cc(C)c(N3CCN(C(=O)CN4CCC(c5ccc(NC6CCC(=O)NC6=O)cc5)CC4)CC3)cc2OC)ncc1Br` (stereo not drawn) [Compound T-255], the values for the IC50 in assay [1], in assay [2] and in assay [3] were 10 to 100 nM, 10 to 100 nM and at most 10 nM, respectively.
Take `COc1cc(N2CCN(C(=O)CN3CCC(c4ccc(NC5CCC(=O)NC5=O)cc4)CC3)CC2)ccc1Nc1ncc(Cl)c(Nc2ccccc2C(=O)NC(C)C)n1` (stereo not drawn) [Compound T-259]: the IC50 in assay [1] was 100 to 1000 nM; in assay [2], 100 to 1000 nM; in assay [3] it was 10 to 100 nM.
Turning to `COc1cc(N2CCN(C(=O)CN3CCC(c4ccc(NC5CCC(=O)NC5=O)cc4)CC3)CC2)ccc1Nc1ncc(C(F)(F)F)c(Nc2ccccc2C(=O)Nc2ccccc2)n1` (stereo not drawn) [Compound T-267], the 50% inhibitory concentration (IC50) in assay [1], in assay [2] and in assay [3] was 100 to 1000 nM throughout.
Consider `COc1cc(N2CCN(C(=O)CN3CCC(c4ccc(NC5CCC(=O)NC5=O)cc4)CC3)CC2)ccc1Nc1ncc(Cl)c(Nc2cccc3c2C(=O)N(C)C3)n1` (stereo not drawn) [Compound T-268], for which the IC50 in assay [1], in assay [2] and in assay [3] was 10 to 100 nM throughout.
As for `COc1cc(N2CCN(C(=O)CN3CCC(c4ccc(NC5CCC(=O)NC5=O)cc4)CC3)CC2)ccc1Nc1ncc(Br)c(Nc2cccc3c2C(=O)NC3)n1` (stereo not drawn) [Compound T-272], the concentration for half-maximal inhibition (IC50) in assay [1] was 10 to 100 nM; in assay [2], 10 to 100 nM; in assay [3], at most 10 nM.
As to `COc1cc(N2CCN(C(=O)CN3CCC(c4ccc(NC5CCC(=O)NC5=O)cc4)CC3)CC2)c(C#N)cc1Nc1ncc(Cl)c(Nc2ccccc2C(C)=O)n1` (stereo not drawn) [Compound T-282], the IC50 in assay [1], in assay [2] and in assay [3] was 10 to 100 nM in each case.
For `CNC(=O)c1ccccc1Nc1nc(Nc2cc(C#N)c(N3CCN(C(=O)CN4CCC(c5ccc(NC6CCC(=O)NC6=O)cc5)CC4)CC3)cc2OC)ncc1Cl` (stereo not drawn) [Compound T-283], the IC50 is 10 to 100 nM in assay [1], 10 to 100 nM in assay [2] and at most 10 nM in assay [3].
On to `COc1cc(N2CCN(C(=O)CN3CCC(c4ccc(NC5CCC(=O)NC5=O)cc4)CC3)CC2)c(C#N)cc1Nc1ncc(Br)c(Nc2ccccc2C(C)=O)n1` (stereo not drawn) [Compound T-286], for which the IC50 in assay [1], in assay [2] and in assay [3] was 10 to 100 nM throughout.
As for `COc1cc(N2CCN(C(=O)CN3CCC(c4ccc(NC5CCC(=O)NC5=O)cc4)CC3)CC2)c(C(F)(F)F)cc1Nc1ncc(Br)c(Nc2ccccc2C(C)=O)n1` (stereo not drawn) [Compound T-289], the IC50 in assay [1], in assay [2] and in assay [3] was 10 to 100 nM throughout.
Take `CNC(=O)c1ccccc1Nc1nc(Nc2cc(C(F)(F)F)c(N3CCN(C(=O)CN4CCC(c5ccc(NC6CCC(=O)NC6=O)cc5)CC4)CC3)cc2OC)ncc1Br` (stereo not drawn) [Compound T-292]: the IC50 in assay [1] was 10 to 100 nM; in assay [2], 10 to 100 nM; in assay [3], at most 10 nM.
`CNC(=O)c1ccccc1Nc1nc(Nc2ccc(N3CCN(C(=O)CN4CCC(c5ccc(NC6CCC(=O)NC6=O)cc5F)CC4)CC3)cc2OC)ncc1Br` (stereo not drawn) [Compound T-295]: the values for the IC50 in assay [1], in assay [2] and in assay [3] were 10 to 100 nM, 10 to 100 nM and at most 10 nM, respectively.
Take `CNC(=O)c1ccccc1Nc1nc(Nc2ccc(N3CCN(C(=O)CC4(F)CCN(c5ccc(NC6CCC(=O)NC6=O)cc5)CC4)CC3)cc2OC)ncc1Cl` (stereo not drawn) [Compound T-300]: the half-inhibitory concentration (IC50) in assay [1], in assay [2] and in assay [3] was 10 to 100 nM throughout.
For `COc1cc(N2CCN(C(=O)CC3(F)CCN(c4ccc(NC5CCC(=O)NC5=O)cc4)CC3)CC2)ccc1Nc1ncc(Cl)c(Nc2ccccc2C(C)=O)n1` (stereo not drawn) [Compound T-303], the half-maximal inhibitory concentration (IC50) in assay [1], in assay [2] and in assay [3] was 10 to 100 nM in each case.
Consider `CNC(=O)c1ccccc1Nc1nc(Nc2ccc(N3CCN(C(=O)CN4CCC(c5ccc(NC6CCC(=O)NC6=O)cc5)C(F)(F)C4)CC3)cc2OC)ncc1Br` (stereo not drawn) [Compound T-313], for which the IC50 is 10 to 100 nM in assay [1], 10 to 100 nM in assay [2] and at most 10 nM in assay [3].
Regarding `COc1cc(N2CCN(C(=O)CN3CCC(c4ccc(NC5CCC(=O)NC5=O)cc4)CC3)CC2)c(C)cc1Nc1ncc(Cl)c(Nc2ccccc2P(C)(C)=O)n1` (stereo not drawn) [Compound T-327], the IC50 in assay [1] was 100 to 1000 nM; in assay [2], 100 to 1000 nM; in assay [3], 10 to 100 nM.
As to `O=C1CCC(Nc2ccc(C3CCN(CC(=O)N4CCN(c5ccc(Nc6ncc(Cl)c(Nc7ccccc7)n6)c(Cl)c5)CC4)CC3)cc2)C(=O)N1` (stereo not drawn) [Compound T-328], the IC50 in assay [1], in assay [2] and in assay [3] was 100 to 1000 nM each time.
Take `CP(C)(=O)c1ccccc1Nc1nc(Nc2ccc(N3CCN(C(=O)CN4CCC(c5ccc(NC6CCC(=O)NC6=O)cc5)CC4)CC3)cc2Cl)ncc1Cl` (stereo not drawn) [Compound T-330]: the IC50 in assay [1], in assay [2] and in assay [3] was 100 to 1000 nM in each case.
Take `COc1cc(C2CCN(C(=O)CN3CCC(c4ccc(NC5CCC(=O)NC5=O)cc4)CC3)CC2)ccc1Nc1ncc(Cl)c(Nc2ccccc2P(C)(C)=O)n1` (stereo not drawn) [Compound T-331]: the values for the IC50 in assay [1], in assay [2] and in assay [3] were 100 to 1000 nM, at least 1000 nM and 100 to 1000 nM, respectively.
